How the values were obtained:
Assay type in all cases: in vivo
Lolium multiflorum = assay: Herbicidal action on LOLMU, visual scoring vs untreated, post-emergence 2-4 leaf stage
Procedure: (§1) The examples given below were performed in the greenhouse and, in some cases, in field trials.
(§2) The herbicides, or combinations, were applied in cereals after the weeds had emerged naturally using plot sprayers. After application, the results, such as damage to the crop plants and effect on broad-leaved weeds/grass weeds were assessed by means of visual scoring. The herbicidal action was assessed qualitatively and quantitatively by comparing untreated and treated plots on the basis of the effect on plant growth and the development of chloroses and necroses down to the complete destruction of the weeds (0–100%). The application was effected when the crop plants and weeds were in the 2–4 leaf stage. The test was evaluated approximately 4 weeks after application.
(§3) In the greenhouse experiments, the crop plants and broadleaved weeds/grass weeds were grown in No. 13 pots and treated in the 2–4 leaf stage. The pots were subsequently placed in the greenhouse under good growth conditions (temperature, atmospheric humidity, water supply).
(§4) The assessments were carried out similarly to those in the field trials, i.e. visual scoring of the treated plants in comparison with untreated control variants. These assessments were carried out 3 weeks after applying the test preparations and their combinations. The experiments had been set up in two replications.
(§5) To assess the combination effects, the activities of the individual components were added and compared with the activity of the mixtures in equal doses. It was frequently observed that the efficacies of the combinations exceeded the total of the individual activities.
(§6) In cases with less clear effects, the expected value was calculated using Colby's formula and compared with the empirically determined result. The calculated efficacy of a combination which is expected in theory is determined is using S.R. Colby's formula: “Calculation of synergistic and antagonistic responses of herbicide combinations”, Weeds 15 (1967), pages 20 to 22.
(§7) [formula] where • X=% damage caused by herbicide A at a rate of ×kg a.i./ha; • Y=% damage caused by herbicide B at a rate of y kg a.i./ha; • Z=% damage caused by a further herbicide C at a rate of z kg a.i./ha; • E=expected value, i.e. expected damage caused by herbicides A+B (or A+B+C) at x+y (or x+y+z) kg a.i./ha.
(§8) Synergistic effects were assumed to be when the empirical value exceeded the expected value. In the case of combinations with individual components with the same active substances, comparisons via the total formula were also possible.

Phalaris canariensis = assay: Herbicidal action on PHACA, visual scoring vs untreated, post-emergence 2-4 leaf stage (greenhouse / field trials)
Procedure: as §1, §2, §3, §4, §5, §6, §7, §8

Abuthilon theophrastis = assay: Herbicidal action on ABUTHE, visual scoring vs untreated, post-emergence 2-4 leaf stage; details: Table 12; 2.5 g of ai/ha
Procedure: as §1, §2
(§9) In the greenhouse experiments, the crop plants and broadleaved weeds/grass weeds were grown in No. 13 pots and treated in the 2–4 leaf stage. […]
(§10) In cases with less clear effects, the expected value was calculated using Colby's formula and compared with the empirically determined result. The calculated efficacy of a combination which is expected in theory is determined is using S.R. Colby's formula: “Calculation of synergistic and antagonistic responses of herbicide combinations”, Weeds 15 (1967), pages 20 to 22. […]

Secale cereale = assay: Damage to crop plant SECCW, visual scoring vs untreated
Procedure: as §1, §2, §3, §4

Mercurialis annua = assay: Herbicidal action on MERAN, visual scoring vs untreated, post-emergence 2-4 leaf stage; details: Table 11
Procedure: as §1, §2, §3, §4, §5, §6, §7, §8

Gallium aparine = assay: Herbicidal action on GALAP, visual scoring vs untreated, post-emergence 2-4 leaf stage
Procedure: as §1, §2, §3, §4, §5, §6, §7, §8

Triticum aestivum = assay: Damage to crop plant TRZAW, visual scoring vs untreated
Procedure: as §1, §2, §3, §4

Viola arvensis = assay: Herbicidal action on VIOAR, visual scoring vs untreated, post-emergence 2-4 leaf stage; details: Table 7
Procedure: as §1, §2, §3, §4, §5, §6, §7, §8

Avena fatua = assay: Herbicidal action on AVEFA, visual scoring vs untreated, post-emergence 2-4 leaf stage; details: Table 11
Procedure: as §1, §2, §3, §4, §5, §6, §7, §8

Apera spica venti = assay: Herbicidal action on APESV, visual scoring vs untreated, post-emergence 2-4 leaf stage; details: Table 1
Procedure: as §1, §2, §3, §4, §5, §6, §7, §8

Zea mays = assay: Damage to crop plant ZEAMA, visual scoring vs untreated
Procedure: as §1, §2, §3, §4

Ambrosia elatior = assay: Herbicidal action on AMBEL, visual scoring vs untreated, post-emergence 2-4 leaf stage; details: Table 12; 2.5 g of ai/ha
Procedure: as §1, §2, §9, §10

Centaurea cyanus = assay: Herbicidal action on CENCY, visual scoring vs untreated, post-emergence 2-4 leaf stage
Procedure: as §1, §2, §3, §4, §5, §6, §7, §8

Work on COC(=O)c1ccc(I)cc1S(=O)(=O)NC(=O)Nc1nc(C)nc(OC)n1.[Na] [A), sodium salt of methyl 4-iodo-2-[3-(4-methoxy-6-methyl-1,3,5-triazin-2-yl)ureidosulfonyl]benzoate] yielded an LOLMU % control (Lolium multiflorum; Table 2, 3 g of a.i./ha) of 0%, an LOLMU % control (Lolium multiflorum; Table 2, 5 g of a.i./ha) of 5% and an LOLMU % control (Lolium multiflorum; Table 2, 10 g of a.i./ha) of 10%. The LOLMU % control (Lolium multiflorum; Table 2, 20 g of a.i./ha) was 48%, the LOLMU % control (Lolium multiflorum; Table 3, 3 g of a.i./ha) was 0% and the LOLMU % control (Lolium multiflorum; Table 3, 5 g of a.i./ha) was 5%. It also gave an LOLMU % control (Lolium multiflorum; Table 3, 10 g of a.i./ha) of 10%, an LOLMU % control (Lolium multiflorum; Table 3, 20 g of a.i./ha) of 48% and an LOLMU % control (Lolium multiflorum; Table 5, 2.5 g of a.i./ha) of 68%. For the same compound, the LOLMU % control (Lolium multiflorum; Table 5, 5 g of a.i./ha) was 75%, the LOLMU % control (Lolium multiflorum; Table 5, 10 g of a.i./ha) was 83% and the PHACA % control (Phalaris canariensis; Table 1, 3 g of a.i./ha) was 0%. The PHACA % control (Phalaris canariensis; Table 1, 5 g of a.i./ha) was 15%, the PHACA % control (Phalaris canariensis; Table 1, 10 g of a.i./ha) was 35% and the PHACA % control (Phalaris canariensis; Table 1, 20 g of a.i./ha) was 53%. The PHACA % control (Phalaris canariensis; Table 2, 3 g of a.i./ha) was 0%, the PHACA % control (Phalaris canariensis; Table 2, 5 g of a.i./ha) was 15% and the PHACA % control (Phalaris canariensis; Table 2, 10 g of a.i./ha) was 35%. For the same compound, the PHACA % control (Phalaris canariensis; Table 2, 20 g of a.i./ha) was 53%, the PHACA % control (Phalaris canariensis; Table 3, 3 g of a.i./ha) was 0% and the PHACA % control (Phalaris canariensis; Table 3, 5 g of a.i./ha) was 15%. For the same compound, the PHACA % control (Phalaris canariensis; Table 3, 10 g of a.i./ha) was 35%, the PHACA % control (Phalaris canariensis; Table 3, 20 g of a.i./ha) was 53% and the ABUTHE % control (Abuthilon theophrastis) was 10%. For the same compound, the SECCW % damage (Secale cereale; Table 6, 5 g of a.i./ha) was 0%, the SECCW % damage (Secale cereale; Table 6, 10 g of a.i./ha) was 0% and the SECCW % damage (Secale cereale; Table 6, 15 g of a.i./ha) was 5%. The SECCW % damage (Secale cereale; Table 10, 5 g of a.i./ha) was 0%, the SECCW % damage (Secale cereale; Table 10, 10 g of a.i./ha) was 0% and the SECCW % damage (Secale cereale; Table 10, 15 g of a.i./ha) was 5%. The MERAN % control (Mercurialis annua; 5 g of a.i./ha) was 70%, the MERAN % control (Mercurialis annua; 10 g of a.i./ha) was 94% and the GALAP % control (Gallium aparine; Table 7, 2.5 g of a.i./ha) was 35%. For the same compound, the GALAP % control (Gallium aparine; Table 7, 5 g of a.i./ha) was 58%, the GALAP % control (Gallium aparine; Table 7, 10 g of a.i./ha) was 60% and the GALAP % control (Gallium aparine; Table 7, 20 g of a.i./ha) was 99%. For the same compound, the GALAP % control (Gallium aparine; Table 11, 5 g of a.i./ha) was 75%, the GALAP % control (Gallium aparine; Table 11, 10 g of a.i./ha) was 98% and the TRZAW % damage (Triticum aestivum; Table 1, 3 g of a.i./ha) was 0%. It also gave a TRZAW % damage (Triticum aestivum; Table 1, 5 g of a.i./ha) of 0%, a TRZAW % damage (Triticum aestivum; Table 1, 10 g of a.i./ha) of 0% and a TRZAW % damage (Triticum aestivum; Table 1, 20 g of a.i./ha) of 0%. It also gave a TRZAW % damage (Triticum aestivum; Table 2, 3 g of a.i./ha) of 0%, a TRZAW % damage (Triticum aestivum; Table 2, 5 g of a.i./ha) of 0% and a TRZAW % damage (Triticum aestivum; Table 2, 10 g of a.i./ha) of 0%. It also gave a TRZAW % damage (Triticum aestivum; Table 2, 20 g of a.i./ha) of 0%, a TRZAW % damage (Triticum aestivum; Table 3, 3 g of a.i./ha) of 0% and a TRZAW % damage (Triticum aestivum; Table 3, 5 g of a.i./ha) of 0%. For the same compound, the TRZAW % damage (Triticum aestivum; Table 3, 10 g of a.i./ha) was 0%, the TRZAW % damage (Triticum aestivum; Table 3, 20 g of a.i./ha) was 0% and the TRZAW % damage (Triticum aestivum; Table 5, 2.5 g of a.i./ha) was 0%. For the same compound, the TRZAW % damage (Triticum aestivum; Table 5, 5 g of a.i./ha) was 0%, the TRZAW % damage (Triticum aestivum; Table 5, 10 g of a.i./ha) was 0% and the TRZAW % damage (Triticum aestivum; Table 5, 20 g of a.i./ha) was 10%. The TRZAW % damage (Triticum aestivum; Table 5, 40 g of a.i./ha) was 15%, the TRZAW % damage (Triticum aestivum; Table 5, 80 g of a.i./ha) was 18% and the TRZAW % damage (Triticum aestivum; Table 5, 160 g of a.i./ha) was 28%. It also gave a TRZAW % damage (Triticum aestivum; Table 7, 2.5 g of a.i./ha) of 0%, a TRZAW % damage (Triticum aestivum; Table 7, 5 g of a.i./ha) of 0% and a TRZAW % damage (Triticum aestivum; Table 7, 10 g of a.i./ha) of 2%. For the same compound, the TRZAW % damage (Triticum aestivum; Table 7, 20 g of a.i./ha) was 10%, the TRZAW % damage (Triticum aestivum; Table 9, 2.5 g of a.i./ha) was 0% and the TRZAW % damage (Triticum aestivum; Table 9, 5 g of a.i./ha) was 0%. For the same compound, the TRZAW % damage (Triticum aestivum; Table 9, 10 g of a.i./ha) was 2%, the TRZAW % damage (Triticum aestivum; Table 9, 20 g of a.i./ha) was 10% and the TRZAW % damage (Triticum aestivum; Table 9, 40 g of a.i./ha) was 15%. The VIOAR % control (Viola arvensis; 2.5 g of a.i./ha) was 58%, the VIOAR % control (Viola arvensis; 5 g of a.i./ha) was 75% and the VIOAR % control (Viola arvensis; 10 g of a.i./ha) was 95%. The VIOAR % control (Viola arvensis; 20 g of a.i./ha) was 98%, the AVEFA % control (Avena fatua; 5 g of a.i./ha) was 60% and the AVEFA % control (Avena fatua; 10 g of a.i./ha) was 80%. The APESV % control (Apera spica venti; 3 g of a.i./ha) was 85%, the APESV % control (Apera spica venti; 5 g of a.i./ha) was 93% and the APESV % control (Apera spica venti; 10 g of a.i./ha) was 97%. It also gave an APESV % control (Apera spica venti; 20 g of a.i./ha) of 98%, a ZEAMA % damage (Zea mays; Table 4, 10 g of a.i./ha) of 0% and a ZEAMA % damage (Zea mays; Table 4, 20 g of a.i./ha) of 0%. It also gave a ZEAMA % damage (Zea mays; Table 4, 40 g of a.i./ha) of 0%, a ZEAMA % damage (Zea mays; Table 4, 80 g of a.i./ha) of 0% and a ZEAMA % damage (Zea mays; Table 8, 10 g of a.i./ha) of 0%. The ZEAMA % damage (Zea mays; Table 8, 20 g of a.i./ha) was 0%, the ZEAMA % damage (Zea mays; Table 8, 40 g of a.i./ha) was 0% and the ZEAMA % damage (Zea mays; Table 8, 80 g of a.i./ha) was 0%. It also gave a ZEAMA % damage (Zea mays; Table 12, 2.5 g of ai/ha) of 3%, an AMBEL % control (Ambrosia elatior) of 88% and a CENCY % control (Centaurea cyanus; Table 6, 5 g of a.i./ha) of 0%. It also gave a CENCY % control (Centaurea cyanus; Table 6, 10 g of a.i./ha) of 30%, a CENCY % control (Centaurea cyanus; Table 6, 15 g of a.i./ha) of 60% and a CENCY % control (Centaurea cyanus; Table 9, 2.5 g of a.i./ha) of 30%. It also gave a CENCY % control (Centaurea cyanus; Table 9, 5 g of a.i./ha) of 43%, a CENCY % control (Centaurea cyanus; Table 9, 10 g of a.i./ha) of 58% and a CENCY % control (Centaurea cyanus; Table 9, 20 g of a.i./ha) of 78%. The CENCY % control (Centaurea cyanus; Table 10, 5 g of a.i./ha) was 0%, the CENCY % control (Centaurea cyanus; Table 10, 10 g of a.i./ha) was 30% and the CENCY % control (Centaurea cyanus; Table 10, 15 g of a.i./ha) was 60%.

Source: patent US7074743B1, “Herbicidal composition comprising 4-iodo-2-[3-(4-methoxy-6-methyl-1,3,5-triazin-2-yl)ureidosulfonyl]benzoic esters” (priority 1995, dated 2006)
